Laboratory results: US20080311233A1, “Naturally Occurring Phenolic Substances Useful as Pesticides” (priority 2004, published 2008)

How the values were obtained:
[1] = Solubility / miscibility in water and formulating agents; type: physicochemical
[2] = cited from earlier work

COc1cc(C=O)ccc1O [Vanillin]
solubility in polyethylene glycol ([1]; polyethylene glycol): considerably soluble
solubility in tetra ethyl ortho silicate ([1]; tetra ethyl ortho silicate): considerably soluble
solubility in water ([2]; according to the Merck index): 1 gram in 100 ml water
solubility in alcohol ([2]; compared with water, Merck index): more soluble
